Experimental findings from patent EP0678295B1, “Manufacturing process of phospholipideactive principle complexes useful for the liposome preparation” (Citernesi, Ugo, priority 1994, dated 1995) are described below.

The data set in a line: Measurement of entrapment efficiency (ultracentrifugation of liposomes, HPLC determination of Vitamin A in both phases). It counts as physicochemical. The note with it: liposomes from gelified phospholipid /Vitamin A complex (Example 1A) plus physiologic solution, 325 nm. As to the method: Measurement of entrapment efficiency.
A gelified phospholipid /Vitamin A complex was prepared according to the procedure described in Example 1A.
Liposomes were then obtained by adding a physiologic solution to the complex and subsequent stirring of the mixture.
The obtained liposomes have been subjected to ultracentrifugation in order to separate the liposome phase from the water phase. In both phases Vitamin A was determined as follows.
Phospholipid /vitamin A pellet resulting from the ultracentrifugation was dissolved in hexane, filtered under vacuum (0.2 .10^5 Pa) and determined by HPLC (high performance liquid chromatography) using two different HPLC columns: • 1) Column: Chromsep Nucleosil C18 100 mm x 3 ID Eluent: methanol Flow: 1 ml/min. Detecting wl: 325 nm • 2) Column: Pertsil 10 ODS Eluent: Methanol/water (90/10) Flow: 1ml/min. Detecting wl: 325 nm
The water phase coming from the ultracentrifugation was analyzed for its vitamin A content using the same HPLC procedure and columns.

As to `CC(=O)OC/C=C(C)/C=C/C=C(C)/C=C/C1=C(C)CCCC1(C)C` [Vitamin A, Vitamin A acetate], the “Vitamin A detected in the liposome phase” value (pellet after ultracentrifugation dissolved in hexane) is listed as “almost all”. Also, where the note is “water phase after ultracentrifugation”, the “Vitamin A detected in the aqueous phase” value was “No Vitamin A was detected”.
